# Data as given in the supplement of paper PMC11208160.
# Assay: recombinant barcode read abundance after kanamycin selection (control-corrected) (log10(CPM+1)); higher = more efficient recombination; sequences stand for … in AGTGCAGAGAAAATCGGCCAGTTTTCTCTGCCTGCAGTCCGCATGCCGT…AGATTTATGCAGCGGACTGCCTTTCTCCCAAAGTGATAAACCGGACAGTATCATGGACCGGTTTTCCCGGTAATCCGTATTTGCAAGGTTGGTTTCACT; site = the 11-nt target
# How it was run: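 In a pooled screen in E. coli, targets were paired with target-binding loops of the IS621 bridge RNA. Each oligo carried a promoter, a target, a barcode and the first 104 bridge RNA bases driven by J23119, and was Gibson-cloned into a vector holding the remaining 73 bp and a T7-inducible recombinase before co-electroporation with a donor plasmid. Duplicate platings went onto chloramphenicol/ampicillin LB agar as the control or onto chloramphenicol/ampicillin/kanamycin with 0.1 mM IPTG. Recombination efficiency is the averaged, control-corrected count per million of barcodes at recombinant junctions, given as log10(CPM+1).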
# 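Also: IS621 recombinase and bridge RNA in Escherichia coli cells.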
row,Sequence,recombinant barcode read abundance (log10)
1,GGACGACCTTGGGTTCTAACCTGTTGCCT (site GGACGGCCTAG),0.412
2,TAGGGCACTTGGGTTCTAACCTGTTGCCG (site TAGGGCACTCA),0.119
3,CGAACTACTTGGGTTCTAACCTGTTGCGT (site CGAACTACTAA),0.22
4,CTGATAACTTGGGTTCTAACCTGTTGCCT (site CTGATTACTAG),0.136
5,TTGGTCGCTTGGGTTCTAACCTGTTGCCT (site TTGGCCGCTAG),1.4
6,GGTTGTTCTTGGGTTCTAACCTGTTGCCT (site TGTTGTTCTAG),0.0976
7,TTGACGGCTTGGGTTCTAACCTGTTGCCT (site TTGACGGCTAG),0.165
8,GTTTATACTTGGGTTCTAACCTGTTGCCT (site GTGTATACTAG),0.0593
9,AGCTCCTCTTGGGTTCTAACCTGTTGCCT (site AGCTCCTCTAG),0.0883
10,TACTGAACTTGGGTTCTAACCTGTTGCCT (site TACTAAACTAG),0.0356
11,ATGACCGCTTGGGTTCTAACCTGTTGCCA (site AGGACCACTTG),0.246
12,TCCGTGGCTTGGGTTCTAACCTGTTGCCT (site TCCGTGCCTAG),0.261
13,CTAGCGACTTGGGTTCTAACCTGTTGCCG (site CTAGCGACTCG),0.834
14,GGCAGTCCTTGGGTTCTAACCTGTTGCCG (site GGCAGACCTAG),0.169
15,ACGAACCCTTGGGTTCTAACCTGTTGCCT (site ACGGACCCTAT),0.247
16,GTATGAACTTGGGTTCTAACCTGTTGCCT (site GTATGAACTAG),1.44
17,CTAAGCTCTTGGGTTCTAACCTGTTGCTA (site CTAAGCTCTTA),0.939
18,AATGGGGCTTGGGTTCTAACCTGTTGCCT (site AATGGGGCTAG),0.79
19,CTCTAAACTTGGGTTCTAACCTGTTGCCG (site CTCTAAACTCG),0.311
20,CGTAGCTCTTGGGTTCTAACCTGTTGCCT (site CGCAGCTCTAG),0.128
21,AGGCCCGCTTGGGTTCTAACCTGTTGCGG (site AGGCCCGCTCC),0.794
22,GCCCTGCCTTGGGTTCTAACCTGTTGCGT (site TACCTGCCTAC),0.133

row,Sequence,recombinant barcode read abundance (log10)
1,ACGACTACTTGGGTTCTAACCTGTTGCCG (site TATTGGCCTAC),0.123
2,TCCGAGACTTGGGTTCTAACCTGTTGCCT (site TCCGAGACTCG),0.048
3,CGAGCTCCTTGGGTTCTAACCTGTTGCCT (site CGAGCTCCTAA),0.763
4,CTAGGAGCTTGGGTTCTAACCTGTTGCTA (site CTAGGAGCTGA),0.0444
5,TGAGACTCTTGGGTTCTAACCTGTTGCCT (site TGAGACTCTAG),2.2
6,ACGCACACTTGGGTTCTAACCTGTTGCCT (site GCGCACACTAG),0.236
7,GCGACTCCTTGGGTTCTAACCTGTTGCTA (site GCGACTCCTTA),0.619
8,GATAGCTCTTGGGTTCTAACCTGTTGCCT (site GATAGCTCTAG),0.998
9,ACCTGAACTTGGGTTCTAACCTGTTGCCT (site ACATGAACTAG),0.056
10,GACGGCACTTGGGTTCTAACCTGTTGCCT (site CGGCTACCTCC),0.0844
11,TCTTGGACTTGGGTTCTAACCTGTTGCTA (site TCTTGGACTGA),0.0809
12,TTCTCTCCTTGGGTTCTAACCTGTTGCCT (site TTCTCTCCTAG),0.206
13,GAAAGCTCTTGGGTTCTAACCTGTTGCGT (site TCCTATGCTCG),0.0782
14,CGGTAATCTTGGGTTCTAACCTGTTGCTT (site ACGTAATCTAA),0.0734
15,GGAGGGACTTGGGTTCTAACCTGTTGCGT (site GGAGGGACTAC),2.97
16,CAGTTTGCTTGGGTTCTAACCTGTTGCCT (site CAGTTCGCTAG),0.172
17,AGGGACCCTTGGGTTCTAACCTGTTGCCT (site AGGGACCCTAG),2.62
18,GCCGGGGCTTGGGTTCTAACCTGTTGCCG (site GCCTGGGCTCG),0.258
19,ATAAATGCTTGGGTTCTAACCTGTTGCCT (site ATAAGGGCTAG),0.0428
20,GAACCTACTTGGGTTCTAACCTGTTGCGG (site GAACCTACTCC),1.77
21,AGAAGTCCTTGGGTTCTAACCTGTTGCCG (site AGAAGTCCTCG),0.971
22,ACATTTCCTTGGGTTCTAACCTGTTGCAT (site TAGAACTCTGC),0.105

row,Sequence,recombinant barcode read abundance (log10)
1,ACGCTGGCTTGGGTTCTAACCTGTTGCCT (site ACACTGGCTAG),0.386
2,CCTCGCGCTTGGGTTCTAACCTGTTGCCT (site CCTAACGCTAG),0.822
3,ACCAATCCTTGGGTTCTAACCTGTTGCCT (site ACCAATTCTAG),0.0626
4,GGATTCACTTGGGTTCTAACCTGTTGCCA (site GGATTCACTTG),0.992
5,GGCACGACTTGGGTTCTAACCTGTTGCCT (site GGCACGACTAG),0.323
6,GGGCACTCTTGGGTTCTAACCTGTTGCCT (site GGGCACTCTAG),1.22
7,GCCGGGGCTTGGGTTCTAACCTGTTGCCG (site GCCAGGGCTCG),0.262
8,CGTTAACCTTGGGTTCTAACCTGTTGCGT (site CGTTAACCTAC),1.37
9,CAAGTGGCTTGGGTTCTAACCTGTTGCCT (site CAAGTTGCTAG),0.721
10,TTAAGCCCTTGGGTTCTAACCTGTTGCCT (site TTAAGACCTAG),0.288
11,ATGAAGACTTGGGTTCTAACCTGTTGCCT (site ATAAAGACTAG),2.09
12,AACTGGGCTTGGGTTCTAACCTGTTGCCT (site ACCTGGGCTAG),0.149
13,CGGAGCCCTTGGGTTCTAACCTGTTGCAG (site CTGAGCCCTAT),0.143
14,CCTAGCACTTGGGTTCTAACCTGTTGCGA (site CCTAGCACTTC),0.939
15,ACACGTGCTTGGGTTCTAACCTGTTGCGA (site CAGAAGTCTAA),0.215
16,TCCGTGGCTTGGGTTCTAACCTGTTGCCT (site TCCGTGTCTAG),0.244
17,GGCACTGCTTGGGTTCTAACCTGTTGCCT (site GGCACCGCTAG),0.123
18,GTTAGGCCTTGGGTTCTAACCTGTTGCCT (site GATAGGCCTAG),0.0232
19,AGTCATACTTGGGTTCTAACCTGTTGCTT (site AGTCATACTAA),0.199
20,ATGGACCCTTGGGTTCTAACCTGTTGCTC (site TATCGGGCTCT),0.0488
21,TAGGCATCTTGGGTTCTAACCTGTTGCTC (site TAGGCATCTGA),0.95
22,TATTCTCCTTGGGTTCTAACCTGTTGCGT (site TATTCTCCTAG),0.12

row,Sequence,recombinant barcode read abundance (log10)
1,GACCCTACTTGGGTTCTAACCTGTTGCCT (site AACCCTACTAG),0.111
2,AGGGCAGCTTGGGTTCTAACCTGTTGCCT (site AGGGCAGCTAG),0.305
3,GTCATGCCTTGGGTTCTAACCTGTTGCCT (site GGCCTGCCTAG),0.0766
4,TCGGGGTCTTGGGTTCTAACCTGTTGCCT (site ACGGGGTCTAG),1.23
5,AATGGGACTTGGGTTCTAACCTGTTGCCT (site AATGGGACTAG),1.72
6,GGTCATCCTTGGGTTCTAACCTGTTGCCT (site GGTCATCCTAG),1.17
7,GAAGACGCTTGGGTTCTAACCTGTTGCCT (site GAAGACGCTAG),1.14
8,TCATATCCTTGGGTTCTAACCTGTTGCCT (site CTCCGAACTCT),0.00468
9,AGTCTAGCTTGGGTTCTAACCTGTTGCCC (site AGTCTAGCTAG),0.421
10,TAGGTACCTTGGGTTCTAACCTGTTGCAT (site TAGGTCCCTAT),0.223
11,TACCGTCCTTGGGTTCTAACCTGTTGCAT (site TACCGTCCTAT),1.18
12,TTCAAGGCTTGGGTTCTAACCTGTTGCCT (site TTCAAGGCTAG),0.17
13,TCGGAATCTTGGGTTCTAACCTGTTGCCT (site TCGGAATCTAG),0.543
14,TATTCACCTTGGGTTCTAACCTGTTGCCT (site AATTCACCTAG),0.0667
15,TGTTGTTCTTGGGTTCTAACCTGTTGCCT (site GGTTGTTCTAG),0.0142
16,TCATCCGCTTGGGTTCTAACCTGTTGCCT (site CCATCCACTAG),0.12
17,GTGATAGCTTGGGTTCTAACCTGTTGCGG (site GATATAGCTCC),0.16
18,ACGGTGACTTGGGTTCTAACCTGTTGCCT (site ACGGTGACTAG),2.24
19,TCCGAGACTTGGGTTCTAACCTGTTGCCT (site TCCGAGACTAG),1.4
20,AGGGCAGCTTGGGTTCTAACCTGTTGCCT (site AGGGGAGCTAG),0.0111
